# Assay results taken from US11589603B2, “Powdered nutritional product containing branched-chain amino acids and a sugar alcohol” (Abbott Laboratories, priority 2015, dated 2023).
# What was measured:
# Assay type in all cases: physicochemical
# [1] = Example 5: effect of inositol isomers on dissolution of L-leucine, LC/UV of filtrate; settings: for enhancement of dissolution rate of L-leucine by inositol isomer: 0.1 g isomer, 3.50 g L-leucine; for Leu dissolved at 30 seconds (g/16 oz.) / Leu dissolved at 60 seconds (% of total Leu) / Leu dissolved at 60 seconds (g/16 oz.): 3.50 g L-leucine with 0.1 g/16 oz. inositol isomer, water 21° C., 400 rpm
# Protocol: The LC/UV system used to perform the tests comprised the following: 1) Column: YMC ODS-AQ, 4.6 x 250 mm, 5 μm, Waters […]; 2) Mobile Phase: Milli-Q Plus water; 3) Flow Rate: 0.4 mL/minute; 4) Temperature: 40° C.; 5) Detection: UV at 192 nm; 6) Injection: 2 μL of filtrate; and 7) Run Time: 20 minutes.
# [2] = Example 3: aqueous dissolution of powdered branched-chain amino acid blend (first material) with varying myo-inositol, LC/UV of filtrate; settings: for Dissolved amino acid (g per 16 oz.): 7.00 g BCAA blend, water 21° C., 400 rpm
# Protocol: Example 3 evaluates the effect that varying the myo-inositol concentration has on the aqueous dissolution of branched-chain amino acids. Two branched-chain amino acid materials were tested. The first material tested was 7.00 grams of a powdered branched-chain amino acid blend comprising 50 wt. % leucine, 25 wt. % isoleucine, and 25 wt. % valine. The second material tested was 3.5 grams of powdered leucine. Each material was tested with varying levels of powdered myo-inositol, expressed as a percentage of 17.6 grams (e.g., a serving of powdered nutritional product). For example, 1% myo-inositol is 0.176 grams, 2% myo-inositol is 0.352 grams, and so forth. The branched-chain amino acid material and the specified amount of myo-inositol were added to 16 fluid ounces of Milli-Q Plus water at 21° C. and stirred at 400 rpm. After 30 seconds and 60 seconds of stirring, an aliquot was obtained and filtered through a 0.45 μm PTFE membrane (Pall Life Sciences, Acrodisc CR 25, P/N 4501), and the filtrate of the first material was tested for valine, isoleucine, and leucine using the LC/UV method described below, while the filtrate of the second material was tested for leucine using the same LC/UV method. The test results for the first material tested are shown in Table 3, while the test results for the second material tested are shown in Table 4.
# (§1) The LC/UV system used to perform the tests comprised the following: 1) Column: YMC ODS-AQ, 4.6 x 250 mm, 5 μm, Waters P/N AQ12S052546WT; 2) Mobile Phase: Milli-Q Plus water; 3) Flow Rate: 0.4 mL/minute; 4) Temperature: 40° C.; 5) Detection: UV at 192 nm; 6) Injection: 2 μL of filtrate; and 7) Run Time: 20 minutes.
# [3] = Example 4: aqueous dissolution of branched-chain amino acids in a powdered nutritional product with varying myo-inositol, LC/UV of filtrate; settings: 17.6 g powdered nutritional product, water 21° C., 400 rpm
# Protocol: as §1
# Example 4 evaluates the effect that myo-inositol concentration has on the aqueous dissolution of branched-chain amino acids (valine, isoleucine, and leucine) in a powdered nutritional product. One serving (17.6 grams) of the powdered nutritional product contains 7.00 grams of a branched-chain amino acid blend comprising 50 wt. % leucine, 25 wt. % isoleucine, and 25 wt. % valine. A serving of the powdered nutritional product with a specified amount of myo-inositol was added to 16 fluid ounces of Milli-Q Plus water at 21° C. and stirred at 400 rpm. At each specified time point, an aliquot was obtained and filtered through a 0.45 μm PTFE membrane (Pall Life Sciences, Acrodisc CR 25, P/N 4501), and the filtrate was tested for valine, isoleucine, and leucine using the LC/UV method as described in Example 3.
# [4] = myo-inositol 0% of 17.6 g, 30 seconds
# [5] = myo-inositol 0% of 17.6 g, 60 seconds
# [6] = myo-inositol 1% of 17.6 g, 30 seconds
# [7] = myo-inositol 1% of 17.6 g, 60 seconds
# [8] = myo-inositol 2% of 17.6 g, 30 seconds
# [9] = myo-inositol 2% of 17.6 g, 60 seconds
# [10] = myo-inositol 4% of 17.6 g, 30 seconds
# [11] = myo-inositol 4% of 17.6 g, 60 seconds
# [12] = myo-inositol 8% of 17.6 g, 30 seconds
# [13] = myo-inositol 8% of 17.6 g, 60 seconds
smiles,measurement,setting,value
OC1C(O)C(O)C(O)C(O)C1O (stereo not drawn) [cis-inositol],enhancement of dissolution rate of L-leucine by inositol isomer,[1],most enhanced
same,Leu dissolved at 30 seconds (g/16 oz.),[1],0.649 g/16 oz.
same,Leu dissolved at 60 seconds (% of total Leu),[1],36.3 % of total Leu
same,Leu dissolved at 60 seconds (g/16 oz.),[1],1.27 g/16 oz.
O[C@H]1[C@H](O)[C@@H](O)[C@H](O)[C@@H](O)[C@@H]1O [scyllo-inositol],Leu dissolved at 30 seconds (g/16 oz.),[1],0.450 g/16 oz.
same,Leu dissolved at 60 seconds (% of total Leu),[1],24.0 % of total Leu
same,Leu dissolved at 60 seconds (g/16 oz.),[1],0.841 g/16 oz.
OC1C(O)C(O)C(O)C(O)C1O (stereo not drawn) [epi-inositol],enhancement of dissolution rate of L-leucine by inositol isomer,[1],most enhanced
same,Leu dissolved at 30 seconds (g/16 oz.),[1],0.626 ± 0.223 g/16 oz.
same,Leu dissolved at 60 seconds (% of total Leu),[1],33.2 ± 10.6 % of total Leu
same,Leu dissolved at 60 seconds (g/16 oz.),[1],1.16 ± 0.37 g/16 oz.
"CC[C@H](C)[C@H](N)C(=O)O [Isoleucine, L-Isoleucine]",Dissolved amino acid (g per 16 oz.),[2]; [4],0.237 g per 16 oz.
same,Dissolved amino acid (g per 16 oz.),[2]; [5],0.495 g per 16 oz.
same,Dissolved amino acid (g per 16 oz.),[2]; [6],0.504 g per 16 oz.
same,Dissolved amino acid (g per 16 oz.),[2]; [7],0.908 g per 16 oz.
same,Dissolved amino acid (g per 16 oz.),[2]; [8],0.337 g per 16 oz.
same,Dissolved amino acid (g per 16 oz.),[2]; [9],0.714 g per 16 oz.
same,Dissolved amino acid (g per 16 oz.),[2]; [10],0.416 g per 16 oz.
same,Dissolved amino acid (g per 16 oz.),[2]; [11],0.791 g per 16 oz.
same,Dissolved amino acid (g per 16 oz.),[2]; [12],0.546 g per 16 oz.
same,Dissolved amino acid (g per 16 oz.),[2]; [13],0.972 g per 16 oz.
same,Dissolved amino acid (g per 16 oz.),"[3]; myo-inositol 0%, 30 seconds",0.978 g per 16 oz.
same,Dissolved amino acid (g per 16 oz.),"[3]; myo-inositol 0%, 60 seconds",1.36 g per 16 oz.
same,Dissolved amino acid (g per 16 oz.),"[3]; myo-inositol 0%, 90 seconds",1.50 g per 16 oz.
same,Dissolved amino acid (g per 16 oz.),"[3]; myo-inositol 0%, 240 seconds",1.71 g per 16 oz.
same,Dissolved amino acid (g per 16 oz.),"[3]; myo-inositol 0%, 600 seconds",1.74 g per 16 oz.
same,Dissolved amino acid (g per 16 oz.),"[3]; myo-inositol 1%, 30 seconds",1.09 g per 16 oz.
same,Dissolved amino acid (g per 16 oz.),"[3]; myo-inositol 1%, 60 seconds",1.39 g per 16 oz.
same,Dissolved amino acid (g per 16 oz.),"[3]; myo-inositol 1%, 90 seconds",1.51 g per 16 oz.
same,Dissolved amino acid (g per 16 oz.),"[3]; myo-inositol 1%, 240 seconds",1.71 g per 16 oz.
same,Dissolved amino acid (g per 16 oz.),"[3]; myo-inositol 1%, 600 seconds",1.71 g per 16 oz.
same,Dissolved amino acid (g per 16 oz.),"[3]; myo-inositol 2%, 30 seconds",1.07 g per 16 oz.
same,Dissolved amino acid (g per 16 oz.),"[3]; myo-inositol 2%, 60 seconds",1.33 g per 16 oz.
same,Dissolved amino acid (g per 16 oz.),"[3]; myo-inositol 2%, 90 seconds",1.46 g per 16 oz.
same,Dissolved amino acid (g per 16 oz.),"[3]; myo-inositol 2%, 240 seconds",1.66 g per 16 oz.
same,Dissolved amino acid (g per 16 oz.),"[3]; myo-inositol 2%, 600 seconds",1.70 g per 16 oz.
same,Dissolved amino acid (g per 16 oz.),"[3]; myo-inositol 4%, 30 seconds",1.14 g per 16 oz.
same,Dissolved amino acid (g per 16 oz.),"[3]; myo-inositol 4%, 60 seconds",1.39 g per 16 oz.
same,Dissolved amino acid (g per 16 oz.),"[3]; myo-inositol 4%, 90 seconds",1.52 g per 16 oz.
same,Dissolved amino acid (g per 16 oz.),"[3]; myo-inositol 4%, 240 seconds",1.70 g per 16 oz.
same,Dissolved amino acid (g per 16 oz.),"[3]; myo-inositol 4%, 600 seconds",1.72 g per 16 oz.
same,Dissolved amino acid (g per 16 oz.),"[3]; myo-inositol 8%, 30 seconds",1.09 g per 16 oz.
same,Dissolved amino acid (g per 16 oz.),"[3]; myo-inositol 8%, 60 seconds",1.38 g per 16 oz.
same,Dissolved amino acid (g per 16 oz.),"[3]; myo-inositol 8%, 90 seconds",1.48 g per 16 oz.
same,Dissolved amino acid (g per 16 oz.),"[3]; myo-inositol 8%, 240 seconds",1.72 g per 16 oz.
same,Dissolved amino acid (g per 16 oz.),"[3]; myo-inositol 8%, 600 seconds",1.74 g per 16 oz.
OC1C(O)C(O)C(O)C(O)C1O [L-chiro-inositol],Leu dissolved at 30 seconds (g/16 oz.),[1],0.472 g/16 oz.
same,Leu dissolved at 60 seconds (% of total Leu),[1],24.2 % of total Leu
same,Leu dissolved at 60 seconds (g/16 oz.),[1],0.848 g/16 oz.
OC1C(O)C(O)C(O)C(O)C1O (centres unmarked) [allo-inositol],enhancement of dissolution rate of L-leucine by inositol isomer,[1],most enhanced
same,Leu dissolved at 30 seconds (g/16 oz.),[1],0.792 g/16 oz.
same,Leu dissolved at 60 seconds (% of total Leu),[1],40.4 % of total Leu
same,Leu dissolved at 60 seconds (g/16 oz.),[1],1.41 g/16 oz.
"CC(C)[C@H](N)C(=O)O [Valine, L-Valine]",Dissolved amino acid (g per 16 oz.),[2]; [4],0.401 g per 16 oz.
same,Dissolved amino acid (g per 16 oz.),[2]; [5],0.730 g per 16 oz.
same,Dissolved amino acid (g per 16 oz.),[2]; [6],0.432 g per 16 oz.
same,Dissolved amino acid (g per 16 oz.),[2]; [7],0.690 g per 16 oz.
same,Dissolved amino acid (g per 16 oz.),[2]; [8],0.550 g per 16 oz.
same,Dissolved amino acid (g per 16 oz.),[2]; [9],1.01 g per 16 oz.
same,Dissolved amino acid (g per 16 oz.),[2]; [10],0.564 g per 16 oz.
same,Dissolved amino acid (g per 16 oz.),[2]; [11],0.924 g per 16 oz.
same,Dissolved amino acid (g per 16 oz.),[2]; [12],0.797 g per 16 oz.
same,Dissolved amino acid (g per 16 oz.),[2]; [13],1.29 g per 16 oz.
same,"valine/myo-inositol correlation on a molar basis, slope of plot (FIG. 2)","[2]; first material, 30 second time point",one valine molecule dissolves for every two molecules of myo-inositol added
same,Dissolved amino acid (g per 16 oz.),"[3]; myo-inositol 0%, 30 seconds",1.30 g per 16 oz.
same,Dissolved amino acid (g per 16 oz.),"[3]; myo-inositol 0%, 60 seconds",1.54 g per 16 oz.
same,Dissolved amino acid (g per 16 oz.),"[3]; myo-inositol 0%, 90 seconds",1.62 g per 16 oz.
same,Dissolved amino acid (g per 16 oz.),"[3]; myo-inositol 0%, 240 seconds",1.69 g per 16 oz.
same,Dissolved amino acid (g per 16 oz.),"[3]; myo-inositol 0%, 600 seconds",1.70 g per 16 oz.
same,Dissolved amino acid (g per 16 oz.),"[3]; myo-inositol 1%, 30 seconds",1.39 g per 16 oz.
same,Dissolved amino acid (g per 16 oz.),"[3]; myo-inositol 1%, 60 seconds",1.59 g per 16 oz.
same,Dissolved amino acid (g per 16 oz.),"[3]; myo-inositol 1%, 90 seconds",1.65 g per 16 oz.
same,Dissolved amino acid (g per 16 oz.),"[3]; myo-inositol 1%, 240 seconds",1.72 g per 16 oz.
same,Dissolved amino acid (g per 16 oz.),"[3]; myo-inositol 1%, 600 seconds",1.72 g per 16 oz.
same,Dissolved amino acid (g per 16 oz.),"[3]; myo-inositol 2%, 30 seconds",1.38 g per 16 oz.
same,Dissolved amino acid (g per 16 oz.),"[3]; myo-inositol 2%, 60 seconds",1.55 g per 16 oz.
same,Dissolved amino acid (g per 16 oz.),"[3]; myo-inositol 2%, 90 seconds",1.63 g per 16 oz.
same,Dissolved amino acid (g per 16 oz.),"[3]; myo-inositol 2%, 240 seconds",1.70 g per 16 oz.
same,Dissolved amino acid (g per 16 oz.),"[3]; myo-inositol 2%, 600 seconds",1.70 g per 16 oz.
same,Dissolved amino acid (g per 16 oz.),"[3]; myo-inositol 4%, 30 seconds",1.44 g per 16 oz.
same,Dissolved amino acid (g per 16 oz.),"[3]; myo-inositol 4%, 60 seconds",1.57 g per 16 oz.
same,Dissolved amino acid (g per 16 oz.),"[3]; myo-inositol 4%, 90 seconds",1.64 g per 16 oz.
same,Dissolved amino acid (g per 16 oz.),"[3]; myo-inositol 4%, 240 seconds",1.70 g per 16 oz.
same,Dissolved amino acid (g per 16 oz.),"[3]; myo-inositol 4%, 600 seconds",1.70 g per 16 oz.
same,Dissolved amino acid (g per 16 oz.),"[3]; myo-inositol 8%, 30 seconds",1.36 g per 16 oz.
same,Dissolved amino acid (g per 16 oz.),"[3]; myo-inositol 8%, 60 seconds",1.56 g per 16 oz.
same,Dissolved amino acid (g per 16 oz.),"[3]; myo-inositol 8%, 90 seconds",1.62 g per 16 oz.
same,Dissolved amino acid (g per 16 oz.),"[3]; myo-inositol 8%, 240 seconds",1.69 g per 16 oz.
same,Dissolved amino acid (g per 16 oz.),"[3]; myo-inositol 8%, 600 seconds",1.69 g per 16 oz.
OC1C(O)C(O)C(O)C(O)C1O (centres unmarked) [muco-inositol],Leu dissolved at 30 seconds (g/16 oz.),[1],0.379 g/16 oz.
same,Leu dissolved at 60 seconds (% of total Leu),[1],21.5 % of total Leu
same,Leu dissolved at 60 seconds (g/16 oz.),[1],0.751 g/16 oz.
